Test results published in PubChem BioAssay (NCI).
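In this assay, cells in 96-well plates receive the compound at five concentrations for 48 hours. Endpoints are linearly interpolated between the surrounding concentrations. TGI denotes the concentration required for complete inhibition of growth.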

How the values were obtained:
Experiment in all cases: growth of human tumour cells (NCI), 48 h
[1] = system: KM20L2 colon
[2] = system: ACHN renal
[3] = system: OVCAR-5 ovarian
[4] = system: 786-0 renal
[5] = system: SN12C renal
[6] = system: M19-MEL melanoma
[7] = system: A549 NSCLC
[8] = system: UACC-257 melanoma
[9] = system: CCRF-CEM leukemia
[10] = system: OVCAR-3 ovarian
[11] = system: HOP-92 NSCLC
[12] = system: SF-268 CNS
[13] = system: M14 melanoma
[14] = system: KM12 colon
[15] = system: HOP-62 NSCLC
[16] = system: TK-10 renal
[17] = system: DMS 114 small cell lung
[18] = system: OVCAR-4 ovarian
[19] = system: RXF 393 renal
[20] = system: SNB-75 CNS
[21] = system: A498 renal
[22] = system: SF-295 CNS
[23] = system: COLO 205 colon
[24] = system: U251 CNS
[25] = system: SK-MEL-5 melanoma
[26] = system: HL-60(TB) leukemia
[27] = system: OVCAR-8 ovarian
[28] = system: SF-539 CNS
[29] = system: NCI-H460 lung
[30] = system: NCI-H522 lung
[31] = system: NCI-H23 lung
[32] = system: UACC-62 melanoma
[33] = system: SNB-19 CNS
[34] = system: IGROV1 ovarian
[35] = system: LOX IMVI melanoma
[36] = system: EKVX NSCLC
[37] = system: HT29 colon
[38] = system: UO-31 renal
[39] = system: RPMI-8226 leukemia
[40] = system: CAKI-1 renal
[41] = system: SR leukemia
[42] = system: HCC-2998 colon
[43] = system: MALME-3M melanoma
[44] = system: SK-OV-3 ovarian
[45] = system: NCI-H226 lung
[46] = system: K-562 leukemia
[47] = system: SW-620 colon
[48] = system: HCT-116 colon
[49] = system: MOLT-4 leukemia
[50] = system: SNB-78 CNS
[51] = system: DMS 273 small cell lung
[52] = system: HOP-18 NSCLC
[53] = system: DLD-1 colon
[54] = system: HCT-15 colon
[55] = system: SK-MEL-28 melanoma
[56] = system: LXFL 529 NSCLC
[57] = system: SK-MEL-2 melanoma

## O=S1c2ccccc2N=C(c2ccc(Cl)cc2)CC1c1cccs1 (centres undefined)
[1]
  TGI: 59.6 µM
[2]
  TGI: > 100 µM
[3]
  TGI: 61.3 µM
[4]
  TGI: 28.2 µM
[5]
  TGI: 38 µM
[6]
  TGI: 39 µM
[7]
  TGI: > 100 µM
[8]
  TGI: 63.5 µM
[9]
  TGI: 86.5 µM
[10]
  TGI: 17.3 µM
[11]
  TGI: 72.5 µM
[12]
  TGI: > 100 µM
[13]
  TGI: 37.4 µM
[14]
  TGI: 33.8 µM
[15]
  TGI: > 100 µM
[16]
  TGI: > 100 µM
[17]
  TGI: 39.5 µM
[18]
  TGI: 57.2 µM
[19]
  TGI: 47.6 µM
[20]
  TGI: > 100 µM
[21]
  TGI: > 100 µM
[22]
  TGI: 39.5 µM
[23]
  TGI: 41 µM
[24]
  TGI: 28.9 µM
[25]
  TGI: 36.9 µM
[26]
  TGI: 45.1 µM
[27]
  TGI: 38.4 µM
[28]
  TGI: 32.5 µM
[29]
  TGI: > 100 µM
[30]
  TGI: 83.5 µM
[31]
  TGI: 85.3 µM
[32]
  TGI: 64.1 µM
[33]
  TGI: 45.2 µM
[34]
  TGI: 35.7 µM
[35]
  TGI: 25.9 µM
[36]
  TGI: > 100 µM
[37]
  TGI: 49.4 µM
[38]
  TGI: 51.6 µM
[39]
  TGI: 56.2 µM
[40]
  TGI: > 100 µM
[41]
  TGI: 43.1 µM
[42]
  TGI: 36.9 µM
[43]
  TGI: > 100 µM
[44]
  TGI: 85.4 µM
[45]
  TGI: > 100 µM
[46]
  TGI: 61 µM
[47]
  TGI: 27.5 µM
[48]
  TGI: 24.3 µM
[49]
  TGI: 98.7 µM
[50]
  TGI: > 100 µM
[51]
  TGI: 28.2 µM
[52]
  TGI: 71.1 µM
[53]
  TGI: 24.9 µM
[54]
  TGI: 29.1 µM
[55]
  TGI: 38.4 µM

## C/C(=N\NS(=O)(=O)c1ccc(C)cc1)c1c(O)cc(C)oc1=O
[1]
  TGI: > 100 µM
[2]
  TGI: > 100 µM
[4]
  TGI: > 100 µM
[5]
  TGI: > 100 µM
[6]
  TGI: > 100 µM
[7]
  TGI: > 100 µM
[8]
  TGI: > 100 µM
[9]
  TGI: > 100 µM
[11]
  TGI: > 100 µM
[12]
  TGI: > 100 µM
[13]
  TGI: > 100 µM
[14]
  TGI: > 100 µM
[15]
  TGI: > 100 µM
[16]
  TGI: > 100 µM
[18]
  TGI: > 100 µM
[20]
  TGI: > 100 µM
[21]
  TGI: > 100 µM
[22]
  TGI: > 100 µM
[24]
  TGI: > 100 µM
[25]
  TGI: > 100 µM
[26]
  TGI: > 100 µM
[27]
  TGI: > 100 µM
[28]
  TGI: > 100 µM
[29]
  TGI: > 100 µM
[31]
  TGI: > 100 µM
[32]
  TGI: > 100 µM
[33]
  TGI: > 100 µM
[34]
  TGI: > 100 µM
[35]
  TGI: > 100 µM
[36]
  TGI: > 100 µM
[37]
  TGI: > 100 µM
[38]
  TGI: > 100 µM
[40]
  TGI: > 100 µM
[41]
  TGI: > 100 µM
[42]
  TGI: > 100 µM
[43]
  TGI: > 100 µM
[44]
  TGI: > 100 µM
[45]
  TGI: > 100 µM
[46]
  TGI: > 100 µM
[47]
  TGI: > 100 µM
[48]
  TGI: > 100 µM
[49]
  TGI: > 100 µM
[50]
  TGI: > 100 µM
[56]
  TGI: > 100 µM
[52]
  TGI: > 100 µM
[53]
  TGI: > 100 µM
[54]
  TGI: > 100 µM
[57]
  TGI: > 100 µM
[55]
  TGI: > 100 µM
